# From patent publication US20040006120A1, “Use of histamine h3 receptor inverse agonists for the control of appetite and treatment of obesity” (priority 2003, published 2004)
# Marks after values point to notes of the source that are not given here.
# What was measured:
# [1] = tested on: food consumption by adult Sprague-Dawley rats; test: Food intake by adult Sprague-Dawley rats; format: in vivo, rat; conditions: for Decrease in Food Intake (%): two hours following the onset of the dark cycle
# Description: The compounds summarized in Table 3 were examined for their ability to suppress food consumption by adult Sprague-Dawley rats. Male Sprague Dawley rats were purchased from Harlan Laboratories of Indianapolis, Ind. Rats were housed one per cage and maintained on a 12 hour light/dark schedule (lights-out at 12:30 p.m.) with ad libitum access to powdered Teklad Mouse/Rat Diet 7012 (available from Harlan Laboratories of Indianapolis, Ind.) and water. Rats were acclimated to laboratory conditions and food for 1 to 2 weeks prior to initiating food intake studies. On the day of experiments, test compounds were solubilized or suspended in vehicle/carrier and administered to rats (i.p. or p.o.) 30 to 60 minutes prior to the onset of the dark cycle. Food intake was determined at 1, 2, 4, and 24 hours following the onset of the dark cycle. Alternatively, rats were fasted (water provided) for 24 hours prior to evaluating the effects of compounds on food intake. For these studies, compounds or vehicle/carrier were administered and rats were placed in standard small animal metabolism chambers with ad libitum access to powdered Teklad Mouse/Rat Diet 7012 and water. Food intake was determined at 2 and 4 hours following the onset of feeding.
# Data is cumulative food intake in grams, mean ± sem. In the table, * indicates a significant decrease in food intake compared to the vehicle-treated rats (t-test, p<0.05).
# (§1) The percent reduction in food intake by rats two hours after intraperitoneal administration of each compound is shown in Table 5. […] In Table 5, * indicates a significant decrease in food intake compared to the vehicle-treated rats (t-test, p<0.05). The ex vivo binding values in Table 5 represent the drug dose required to obtain ½-maximal H3 receptor occupancy in the brain following intraperitoneal administration. The dose values shown in Table 5 represent the dosage of drug utilized during the food intake studies. In all cases, the tested dose exceeded the amount needed to obtain ½-maximal H3 receptor occupancy in the brain.
# [2] = target: T1, H3 receptor occupancy in the brain (Rattus norvegicus, UniProt Q9QYN8); test: Ex vivo binding: H3 receptor occupancy in the brain after intraperitoneal administration; conditions: following intraperitoneal administration
# T1 construct: H3 receptor occupancy in the brain following intraperitoneal administration; from tissue
# T1 sequence (Q9QYN8 whole entry): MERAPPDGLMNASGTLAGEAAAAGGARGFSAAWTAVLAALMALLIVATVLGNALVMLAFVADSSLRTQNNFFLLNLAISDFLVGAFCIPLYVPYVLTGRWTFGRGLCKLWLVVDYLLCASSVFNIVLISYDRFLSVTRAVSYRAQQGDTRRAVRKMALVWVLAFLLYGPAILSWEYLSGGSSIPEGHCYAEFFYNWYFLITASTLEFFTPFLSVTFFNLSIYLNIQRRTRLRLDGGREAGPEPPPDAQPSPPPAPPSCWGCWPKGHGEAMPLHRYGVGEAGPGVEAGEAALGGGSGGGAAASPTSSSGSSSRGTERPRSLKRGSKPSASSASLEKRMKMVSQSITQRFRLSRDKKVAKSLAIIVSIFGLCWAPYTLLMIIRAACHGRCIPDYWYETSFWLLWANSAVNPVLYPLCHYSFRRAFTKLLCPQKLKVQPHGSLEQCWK
# Description: as §1
# Histamine H3 receptor = target: T2, Histamine H3 receptor (Rattus norvegicus, UniProt Q9QYN8); test: Histamine H3 receptor binding in rat cerebral cortical membranes with [3H]-Nα-methylhistamine, with and without GTPγS; conditions: in words
# T2 construct: The cerebral cortical tissues were harvested and frozen on dry ice; from tissue; host or cells: cerebral cortex of male Sprague-Dawley rats (membrane preparation)
# T2 sequence (Q9QYN8 whole entry): as above
# Description: A histamine H3 receptor binding analysis to determine the affinity of various imidazole derivatives for G-protein uncoupled receptors was performed as follows. Male Sprague-Dawley rats were purchased from Harlan Laboratories of Indianapolis, Ind. and housed two per cage on a 12 hour light/dark schedule with ad libitum access to Teklad Mouse/Rat Diet 7012 (available from Harlan Laboratories of Indianapolis, Ind.) and water in accordance with the Animal Welfare Act of 1994 and amendments. Animals were acclimated to laboratory conditions for a minimum of one week prior to tissue harvesting.
# Animals were anesthetized by NO2 inhalation and euthanized by rapid decapitation. The cerebral cortical tissues were harvested and frozen on dry ice. Rat corticies were mechanically homogenized using a Tissue Tearer in 25 mM Tris buffer (pH 7.5 at 4° C.) containing: EDTA (10 mM), phenylmethylsulfonyl fluoride (0.1 mM), chymostatin and leupeptin (each 0.2 mg/50 mL). The homogenate was centrifuged in a Sorvall centrifuge at 40,000×g for 30 minutes. The pellet was re-suspended in 25 ml water and lysed on ice for 30 minutes. The homogenate was then re-centrifuged and the membrane lysis was repeated. […] Protein concentrations were determined using the Coomassie Plus Protein Assay (available from Pierce of Rockford, Ill.). […]
smiles,measurement,setting,value
"O=C(N[C@@H]1C[C@H]1c1c[nH]cn1)OCCC1CCCCC1 [Compound 1, 4-((1R,2R)-trans-2-(O(2-cyclohexylethyl)carboxamido)cyclopropyl)imidazole]",Decrease in Food Intake (%),"[1]; Dose 10, intraperitoneal",32.6 ± 4.3* %
same,Ex Vivo Binding: drug dose required to obtain ½-maximal H3 receptor occupancy in the brain,[2],31 ± 1.3 mg/kg
"C(=C/CCC1CCCCC1)/CCc1c[nH]cn1 [Compound 2, (3Z)-4-(6-cyclohexylhex-3-en-1-yl)imidazole]",Decrease in Food Intake (%),"[1]; Dose 3, intraperitoneal",5.5 ± 0.8%
same,binding to GTPγS-treated cortical membrane preparation compared with non-treated preparation,Histamine H3 receptor,relatively little difference
same,Ex Vivo Binding: drug dose required to obtain ½-maximal H3 receptor occupancy in the brain,[2],0.92 ± 0.01 mg/kg
"O=C(N[C@@H]1C[C@H]1c1c[nH]cn1)OCC1CCCCC1 [Compound 3, 4-((1R,2R)-trans-2-(O-(2-cyclohexylmethyl)carboxamido)cyclopropyl)imidazole]",Decrease in Food Intake (%),"[1]; Dose 10, intraperitoneal",36.4 ± 3.3* %
same,duration of significant reduction of food consumption,"[1]; single administration, 10 mg/kg i.p.",up to 24 hours
same,Ex Vivo Binding: drug dose required to obtain ½-maximal H3 receptor occupancy in the brain,[2],2.6 ± 1.3 mg/kg
"N[C@H](/C=C\CCc1c[nH]cn1)CC1CCCCC1 [Compound 4, 4-(((5S)(3Z)-5-amino-6-cyclohexyl)hex-3-en-1-yl)imidazole]",Decrease in Food Intake (%),"[1]; Dose 20, intraperitoneal",53.9 ± 11.1* %
same,Ex Vivo Binding: drug dose required to obtain ½-maximal H3 receptor occupancy in the brain,[2],˜15 mg/kg
"O=C(CCCCC1CCCCC1)N1CCC(c2c[nH]cn2)CC1 [Compound 5, 4-(N-(5-cyclohexylpentan-1-one-1-yl)piperidin-4-yl)imidazole]",Decrease in Food Intake (%),"[1]; Dose 10, intraperitoneal",67.6 ± 9.6* %
same,Ex Vivo Binding: drug dose required to obtain ½-maximal H3 receptor occupancy in the brain,[2],8.0 ± 1.3 mg/kg
"CC(C)(C)CCC#C[C@@H]1C[C@H]1c1c[nH]cn1 [Compound 6, (1R,2R)-trans-4-(2-(5,5-dimethylhex-1-ynyl)cyclopropyl)imidazole]",Decrease in Food Intake (%),"[1]; Dose 1, intraperitoneal",−4.6 ± 0.8%
same,Ex Vivo Binding: drug dose required to obtain ½-maximal H3 receptor occupancy in the brain,[2],0.08 ± 0.03 mg/kg
"O=C(N[C@@H]1C[C@H]1c1c[nH]cn1)OCc1c(Cl)cccc1Cl [Compound 7, 4-((1R,2R)-trans-2-(O-(2,6-dichlorophenylmethyl)carboxamido)cyclopropyl)imidazole]",Decrease in Food Intake (%),"[1]; Dose 10, intraperitoneal",0.8 ± 0.0%
same,Ex Vivo Binding: drug dose required to obtain ½-maximal H3 receptor occupancy in the brain,[2],2.9 ± 1.3 mg/kg
"Fc1ccc(C(OCCCc2c[nH]cn2)c2ccc(F)cc2)cc1 [Compound 8, 3-(1H-imidazol-4-yl)propyl-di(p-fluorophenyl)-methylether]",Decrease in Food Intake (%),"[1]; Dose 10, intraperitoneal",56.6 ± 8.3* %
same,Ex Vivo Binding: drug dose required to obtain ½-maximal H3 receptor occupancy in the brain,[2],5.6 ± 0.12 mg/kg
"CC(C)(C)CCOC(=O)N[C@@H]1C[C@H]1c1c[nH]cn1 [Compound 9, 4-((1R,2R)-trans-2-(O-(3,3-dimethyl-but-1-yl)carboxamido)cyclopropyl)imidazole]",Decrease in Food Intake (%),"[1]; Dose 10, intraperitoneal",−25.1 ± 3.8%
same,Ex Vivo Binding: drug dose required to obtain ½-maximal H3 receptor occupancy in the brain,[2],3.7 ± 0.4 mg/kg
